Test results taken from PubChem BioAssay AID190 (DTP/NCI, 2004).
Where “and” joins values, the source holds several entries; their conditions need not be identical. Equal values may be shown once. Inconclusive results and toxic doses are left out.

System: AKR/Lw mice, AKR lymphoma ip, median survival T/C
Experiment: NCI In Vivo Anticancer Drug Screen. Data for tumor model Lymphoma AKR (Transplanted) (intraperitoneal) in AKR/Lw mice
Settings: endpoint: median survival time, higher = longer survival
Protocol: The antitumor activity of compounds was measured in mice bearing transplantable tumors. Survival or tumor size were measured and the results are expressed as the measurement made in the treated group (T) divided by the measurement made in the vehicle treated control group (C). The tumor model used in this assay is Lymphoma AKR (Transplanted) (intraperitoneal) in AKR/Lw mice

[1] = dose: 0.05 mg/kg/injection, schedule: Q01DX010 (ip), vehicle: saline
[2] = dose: 0.1 mg/kg/injection, schedule: Q01DX010 (ip), vehicle: saline
[3] = dose: 100.0 mg/kg/injection, schedule: Q01DX001 (ip), vehicle: saline
[4] = dose: 200.0 mg/kg/injection, schedule: Q01DX001 (ip), vehicle: saline
[5] = dose: 100.0 mg/kg/injection, schedule: Q01DX001 (ip), vehicle: Klucel (hydroxypropylcellulose) (HPC)
[6] = dose: 400.0 mg/kg/injection, schedule: Q01DX001 (ip), vehicle: Klucel (hydroxypropylcellulose) (HPC)
[7] = dose: 400.0 mg/kg/injection, schedule: Q01DX001 (ip), vehicle: saline
[8] = dose: 200.0 mg/kg/injection, schedule: Q01DX001 (ip), vehicle: Klucel (hydroxypropylcellulose) (HPC)

## Cc1c(N)nc([C@H](CC(N)=O)NC[C@H](N)C(N)=O)nc1C(=O)N[C@H](C(=O)N[C@H](C)[C@@H](O)[C@H](C)C(=O)N[C@H](C(=O)NCCc1nc(-c2nc(C(=O)NCCC[S+](C)C)cs2)cs1)[C@@H](C)O)C(OC1OC(CO)C(O)C(O)C1OC1OC(CO)C(O)C(OC(N)=O)C1O)c1cnc[nH]1 (stereo partly specified)
[1]
  T/C: 120 % of control
[2]
  T/C: 103 % of control
dose: 0.25 mg/kg/injection, schedule: Q01DX010 (ip), vehicle: saline
  T/C: 116 % of control
dose: 0.4 mg/kg/injection, schedule: Q01DX010 (ip), vehicle: saline
  T/C: 113 % of control
dose: 0.5 mg/kg/injection, schedule: Q01DX010 (ip), vehicle: saline
  T/C: 106 % of control
dose: 0.75 mg/kg/injection, schedule: Q01DX010 (ip), vehicle: saline
  T/C: 106 % of control
dose: 1.0 mg/kg/injection, schedule: Q01DX010 (ip), vehicle: saline
  T/C: 100 % of control
dose: 1.5 mg/kg/injection, schedule: Q01DX010 (ip), vehicle: saline
  T/C: 93 % of control
dose: 1.9 mg/kg/injection, schedule: Q01DX010 (ip), vehicle: saline
  T/C: 95 % of control
dose: 2.0 mg/kg/injection, schedule: Q01DX010 (ip), vehicle: saline
  T/C: 100 % of control

## CCN(CC)CCOc1ccc2c(c1)C(=O)c1cc(OCCN(CC)CC)ccc1-2
dose: 2.5 mg/kg/injection, schedule: Q01DX001 (ip), vehicle: saline
  T/C: 106 % of control
dose: 5.0 mg/kg/injection, schedule: Q01DX001 (ip), vehicle: saline
  T/C: 106 % of control
dose: 10.0 mg/kg/injection, schedule: Q01DX001 (ip), vehicle: saline
  T/C: 106 % of control
dose: 20.0 mg/kg/injection, schedule: Q01DX001 (ip), vehicle: saline
  T/C: 100 % of control
dose: 25.0 mg/kg/injection, schedule: Q01DX007 (ip), vehicle: saline
  T/C: 272 % of control
dose: 50.0 mg/kg/injection, schedule: Q01DX001 (ip), vehicle: saline
  T/C: 102 % of control
dose: 50.0 mg/kg/injection, schedule: Q01DX007 (ip), vehicle: saline
  T/C: 102 % of control

## O=C1CCSCCN1
[3]
  T/C: 95 % of control
[4]
  T/C: 86 % of control

## COc1cccc2c1C(=O)c1c(O)c3c(c(O)c1C2=O)C[C@@](O)(C(C)=O)C[C@@H]3OC1CC(N)C(O)C(C)O1 (stereo partly specified)
dose: 0.02 mg/kg/injection, schedule: Q01DX015 (ip), vehicle: saline
  T/C: 100 % of control
[1]
  T/C: 112 % of control
dose: 0.05 mg/kg/injection, schedule: Q01DX015 (ip), vehicle: saline
  T/C: 115 % of control
[2]
  T/C: 119 % of control
dose: 0.1 mg/kg/injection, schedule: Q01DX015 (ip), vehicle: saline
  T/C: 101 % of control and 110 % of control
dose: 0.18 mg/kg/injection, schedule: Q01DX015 (ip), vehicle: saline
  T/C: 106 % of control
dose: 0.2 mg/kg/injection, schedule: Q01DX010 (ip), vehicle: saline
  T/C: 122 % of control
dose: 0.2 mg/kg/injection, schedule: Q01DX015 (ip), vehicle: saline
  T/C: 106 % of control
dose: 0.3 mg/kg/injection, schedule: Q01DX015 (ip), vehicle: saline
  T/C: 99 % of control
dose: 0.37 mg/kg/injection, schedule: Q01DX015 (ip), vehicle: saline
  T/C: 121 % of control
dose: 0.4 mg/kg/injection, schedule: Q01DX015 (ip), vehicle: saline
  T/C: 103 % of control and 113 % of control

## S=c1nc[nH]c2nc[nH]c12
dose: 6.25 mg/kg/injection, schedule: Q01DX015 (ip), vehicle: Klucel (hydroxypropylcellulose) (HPC)
  T/C: 110 % of control
dose: 10.0 mg/kg/injection, schedule: Q01DX009 (ip), vehicle: saline
  T/C: 94 % of control
dose: 12.5 mg/kg/injection, schedule: Q01DX015 (ip), vehicle: Klucel (hydroxypropylcellulose) (HPC)
  T/C: 100 % of control
dose: 20.0 mg/kg/injection, schedule: Q01DX009 (ip), vehicle: saline
  T/C: 94 % of control and 102 % of control and 105 % of control
dose: 25.0 mg/kg/injection, schedule: Q01DX015 (ip), vehicle: Klucel (hydroxypropylcellulose) (HPC)
  T/C: 100 % of control
dose: 30.0 mg/kg/injection, schedule: Q01DX001 (ip), vehicle: saline
  T/C: 104 % of control and 109 % of control and 112 % of control
dose: 30.0 mg/kg/injection, schedule: Q01DX009 (ip), vehicle: saline
  T/C: 100 % of control
dose: 30.0 mg/kg/injection, schedule: Q04DX003 (ip), vehicle: saline
  T/C: 102 % of control
dose: 37.5 mg/kg/injection, schedule: Q01DX009 (ip), vehicle: saline
  T/C: 104 % of control
dose: 40.0 mg/kg/injection, schedule: Q01DX009 (ip), vehicle: saline
  T/C: 94 % of control and 97 % of control and 113 % of control
dose: 50.0 mg/kg/injection, schedule: Q01DX009 (ip), vehicle: Klucel (hydroxypropylcellulose) (HPC)
  T/C: 100 % of control
dose: 50.0 mg/kg/injection, schedule: Q01DX009 (ip), vehicle: saline
  T/C: 120 % of control
dose: 50.0 mg/kg/injection, schedule: Q01DX015 (ip), vehicle: Klucel (hydroxypropylcellulose) (HPC)
  T/C: 92 % of control and 93 % of control
dose: 50.0 mg/kg/injection, schedule: Q04DX003 (ip), vehicle: saline
  T/C: 100 % of control
dose: 60.0 mg/kg/injection, schedule: Q01DX001 (ip), vehicle: saline
  T/C: 97 % of control and 111 % of control and 113 % of control
dose: 60.0 mg/kg/injection, schedule: Q01DX009 (ip), vehicle: saline
  T/C: 96 % of control
dose: 60.0 mg/kg/injection, schedule: Q04DX003 (ip), vehicle: saline
  T/C: 119 % of control
dose: 75.0 mg/kg/injection, schedule: Q01DX001 (ip), vehicle: saline
  T/C: 113 % of control
dose: 75.0 mg/kg/injection, schedule: Q01DX009 (ip), vehicle: saline
  T/C: 109 % of control
dose: 80.0 mg/kg/injection, schedule: Q01DX009 (ip), vehicle: saline
  T/C: 94 % of control and 123 % of control
[5]
  T/C: 96 % of control
dose: 100.0 mg/kg/injection, schedule: Q01DX009 (ip), vehicle: Klucel (hydroxypropylcellulose) (HPC)
  T/C: 90 % of control
dose: 100.0 mg/kg/injection, schedule: Q01DX009 (ip), vehicle: saline
  T/C: 93 % of control
dose: 100.0 mg/kg/injection, schedule: Q04DX003 (ip), vehicle: Klucel (hydroxypropylcellulose) (HPC)
  T/C: 97 % of control and 100 % of control and 108 % of control
dose: 100.0 mg/kg/injection, schedule: Q04DX003 (ip), vehicle: saline
  T/C: 102 % of control and 123 % of control
dose: 120.0 mg/kg/injection, schedule: Q01DX001 (ip), vehicle: saline
  T/C: 93 % of control and 104 % of control and 222 % of control
dose: 120.0 mg/kg/injection, schedule: Q04DX003 (ip), vehicle: saline
  T/C: 100 % of control
dose: 150.0 mg/kg/injection, schedule: Q01DX001 (ip), vehicle: Klucel (hydroxypropylcellulose) (HPC)
  T/C: 102 % of control and 112 % of control
dose: 150.0 mg/kg/injection, schedule: Q01DX009 (ip), vehicle: saline
  T/C: 100 % of control
dose: 175.0 mg/kg/injection, schedule: Q01DX001 (ip), vehicle: Klucel (hydroxypropylcellulose) (HPC)
  T/C: 100 % of control
[4]
  T/C: 104 % of control
dose: 200.0 mg/kg/injection, schedule: Q01DX009 (ip), vehicle: saline
  T/C: 110 % of control
dose: 200.0 mg/kg/injection, schedule: Q04DX003 (ip), vehicle: Klucel (hydroxypropylcellulose) (HPC)
  T/C: 90 % of control
dose: 200.0 mg/kg/injection, schedule: Q04DX003 (ip), vehicle: saline
  T/C: 90 % of control
dose: 300.0 mg/kg/injection, schedule: Q01DX001 (ip), vehicle: Klucel (hydroxypropylcellulose) (HPC)
  T/C: 106 % of control
dose: 300.0 mg/kg/injection, schedule: Q01DX001 (ip), vehicle: saline
  T/C: 119 % of control
[6]
  T/C: 113 % of control
[7]
  T/C: 102 % of control
dose: 400.0 mg/kg/injection, schedule: Q04DX003 (ip), vehicle: Klucel (hydroxypropylcellulose) (HPC)
  T/C: 121 % of control
dose: 600.0 mg/kg/injection, schedule: Q01DX001 (ip), vehicle: Klucel (hydroxypropylcellulose) (HPC)
  T/C: 115 % of control

## NS(=O)(=O)c1ccc(N=Nc2nc3ncnc(SCc4cccs4)c3[nH]2)cc1
[5]
  T/C: 97 % of control
[8]
  T/C: 102 % of control
[6]
  T/C: 107 % of control

## O=C1CC2CCCC(C1)S2=O (stereo unspecified)
[3]
  T/C: 113 % of control
[4]
  T/C: 89 % of control
[7]
  T/C: 97 % of control

## CC(=O)c1ccc2ccccc2c1O
dose: 25.0 mg/kg/injection, schedule: Q01DX001 (ip), vehicle: Klucel (hydroxypropylcellulose) (HPC)
  T/C: 102 % of control
dose: 50.0 mg/kg/injection, schedule: Q01DX001 (ip), vehicle: Klucel (hydroxypropylcellulose) (HPC)
  T/C: 88 % of control
[8]
  T/C: 88 % of control
dose: 200.0 mg/kg/injection, schedule: Q01DX001 (ip), vehicle: other
  T/C: 104 % of control
dose: 400.0 mg/kg/injection, schedule: Q01DX001 (ip), vehicle: other
  T/C: 111 % of control
